Assay results published in patent US20240082273A1, “NEUROKININ INHIBITORS SUCH AS APREPITANT FOR TREATING NON SMALL CELL LUNG CARCINOMA OR BREAST CANCER WITHOUT MUTATIONS” (priority 2020, published 2024).

System: lung cancer cell lines with molecular profile EGFR−/ALK+/ROS1− (H322, H332)
Experiment: MTT proliferation, NSCLC cell lines with EGFR−/ALK+/ROS1− profile
Type: cell-based, human
Conditions: 48 hours
Text: EGFR, ALK and ROS1 are key molecular factors that may be used to determine pathological classification, prognosis, therapeutics and behaviour in patients with lung cancer. EGFR, ALK and ROS1 are biomarkers routinely analysed in the clinical practice of the management of patients with NSCLC. NSCLC with molecular profile EGFR-/ALK-/ROS1- presents a better response to treatment with the NK1 inhibitor aprepitant, compared to lung cancer with different profiles (in particular, EGFR+/ALK-/ROS1- and EGFR-/ALK+/ROS1-, in which EGFR and ALK respectively contain mutations relative to their wild type gene). Commercial lines of lung cancer were used as shown in Table 2 together with their molecular profile. The molecular profile of the cancer cell lines was determined by sequencing and can be consulted in the Cancer Cell Line Encyclopaedia database of public access available at the url: https://portals.broadinstitute.org/ccle All cells were cultured in wells under vendor-recommended conditions and exposed to different concentrations of aprepitant for 48 hours. In each case a group of wells of cells were used to which no treatment was applied and which were considered as controls. At 48 hours the number of cells was measured. Eight cell lines of human were used for the study of NK1 inhibitors (Table 3). All of them were maintained in culture in their respective culture media (Gibco,Thermo Fisher Scientific) supplemented with 10% foetal bovine serum (FBS) (Gibco, Thermo Fisher Scientific), 2 mM L-Glutamine (Gln) (Sigma-Aldrich, Merk), and […] and […] Gibco, Thermo Fisher Scientific) in a humidified incubator at 37° C. and 5% CO2. Cell culture media used are Dulbecco's Modified Eagle Medium (DMEM), and RPMI Medium 1640 (RPMI-1640). To measure cell viability, the cytotoxicity of drugs in culture was evaluated using the 3-(4,5-Dimethyl-2-thiazolyl)-2,5-diphenyl-2H-tetrazolium bromide (MTT) reduction assay. This assay assesses cell viability through the indirect measurement of the activity of reductases that convert yellow soluble MTT into purple insoluble formazan salts. As MTT can only be reduced when these enzymes are active, the reaction is used as an indicator of the cell metabolic competence and, therefore, of viability. A variable number of cells (depending on the cell line) were seeded in 96 multi-well plates and grown during 24 hours. The following day, the culture medium was aspirated and fresh culture medium with the drug dissolved was added to the wells. After 24 hours or 48 hours cell viability was measurement by adding 10 μl of a 5 mg/ml MTT solution (M5655; Sigma-Aldrich) and 100 μl of HCl 0.01M-SDS 10% solution 4 hours later. After 24 hours, the absorbance was measured at 595 nm, using a multi-well plate reader (iMark, Bio-rad). Each condition was tested 5 times, obtaining 5 values of absorbance. All sample measurements were corrected using the blank (culture medium without cells) mean absorbance value, and normalized to positive control to determinate relative cell viability for each condition at 24 and 48 hours.

`C[C@@H](O[C@H]1OCCN(Cc2nc(=O)[nH][nH]2)[C@H]1c1ccc(F)cc1)c1cc(C(F)(F)F)cc(C(F)(F)F)c1` [Aprepitant] gave a Mean proliferation (aprepitant 1 μM) of 102.88, a Mean proliferation (aprepitant 3 μM) of 92.41 and a Mean proliferation (aprepitant 5 μM) of 105.07. For the same molecule, the Mean proliferation (aprepitant 10 μM) was 108.06, the Mean proliferation (aprepitant 20 μM) was 99 and the Mean proliferation (aprepitant 30 μM) was 88.22. It also gave a Mean proliferation (aprepitant 40 μM) of 68.94, a Mean proliferation (aprepitant 50 μM) of 37.3 and a Mean proliferation (aprepitant 60 μM) of 11.67.
